From patent publication US20050282824A1, “Substituted pyrimidines as inhibitors of bacterial type III protein secretion systems” (priority 2004, published 2005) come the findings set out here.

In assay [1] the test system is SPI1 type III protein secretion of SipB by S. enterica. In words: Secondary assay: Type III-dependent protein secretion of the SipB polypeptide by S. enterica. Type of assay: cell-based. To be noted: Salmonella enterica, read-out: SipB IC50(uM). The procedure: Secondary assay: Type III-dependent protein secretion of the SipB polypeptide by S. enterica. The SipB protein of S. enterica is another effector of the SPI1 type III protein secretion system from S. enterica. In this cell-based procedure, the Type III-dependent secretion of SipB from the bacterial cytoplasm to the extracellular medium was measured through its reactivity with a cognate mouse monoclonal.
Salmonella enterica cells growing either in the presence or in the absence of inhibitors are induced for the production of SipB. Following an established period of growth the cells are sedimented and the amount of SipB present in the supernatant is quantified with a scanning imager following application of immunoblot techniques. Detection may employ an anti-SipB mouse monoclonal antibody (e.g., obtained from Jorge Galan, SUNY at Stony Brook, N.Y.) followed by treatment with commercially available sheep anti-mouse polyclonal antibody conjugated with horseradish peroxidase. Thereafter the membrane is treated with a peroxidase chemiluminescent substrate and exposed to film for an appropriate exposure time. Inhibition may be measured relative to untreated controls.

Assay [2] relates to SPI1 type III protein secretion of SopE'-'Bla by Salmonella enterica. Kind of assay: Primary assay: Type III protein secretion of the chimeric SopE'-'Bla polypeptide by Salmonella enterica. Type of assay: cell-based. The note with it: read-out: SopE IC50(uM). An excerpt:
Primary assay: Type III protein secretion of the chimeric SopE′-′Bla polypeptide by Salmonella enterica. This procedure is a cell-based assay that measures the type III-dependent secretion by Salmonella enterica of a plasmid-encoded chimeric polypeptide whose synthesis can be regulated, and which is endowed with an enzymatic activity that can be monitored […] by hydrolysis of a substrate that is unable to penetrate into the bacterial cytoplasm within the time constraints of the reaction. Thus, the colorimetric reaction is not influenced by SopE′-′Bla polypeptide in the bacterial cytoplasm. Instead, it effectively measures the amount of polypeptide that has been secreted from the S. enterica cytoplasm to the extracellular medium via type III system protein secretion.
The SopE′-′Bla recombinant polypeptide consists of two functionally distinct domains spliced together. The N-terminus domain is encoded by a polynucleotide region specifying the signal for type III secretion of the SopE polypeptide of S. enterica, an effector of the SPI1 type III protein secretion system. The C-terminus domain of SopE′-′Bla consists of a 263 amino acid peptide sequence that corresponds to the TEM-1 β-lactamase expressed by plasmid pBR322 but without its N-terminal signal sequence. The TEM-1 β-lactamase part of the SopE′-′Bla chimeric polypeptide is used as a reporter enzyme. It is capable of hydrolyzing nitrocefin resulting in a product whose accumulation can be monitored by colorimetric detection. The secretion of the SopE′-′Bla chimeric polypeptide from the cytoplasm to the extracellular medium is dependent on type III protein secretion.
For this procedure, cells grown under conditions known to favor a functional SPI1 secretion system are induced for expression of the SopE′-′Bla protein and grown either in the presence or in the absence of putative inhibitors for determined time. Nitrocefin is then added to the various cultures and its hydrolysis are used for quantitation. An inhibitor of Type III protein secretion is generally a compound that reduces the signal of the enzymatic reaction by decreasing the amount of SopE′-′Bla secreted into the extracellular medium.

In general, IC50 refers to the midpoint of a concentration-inhibition curve.

Each structure is given as a SMILES string.

For `CN(C)c1ccc(-c2nc(C(=O)N[C@@H](CSCc3ccccc3)C(=O)O)cc(N3CCN(c4nccc(C(F)(F)F)n4)CC3)n2)cc1` [Compound 50, (R)-3-Benzylsulfanyl-2-({2-(4-dimethylaminophenyl)-6-[4-(4-trifluoromethyl-pyrimidin-2-yl)piperazin-1-yl]pyrimidine-4-carbonyl}amino)propionic acid], the IC50 in assay [1] is more than 100 µM; in assay [2], 20.1 µM.
For `O=C(N[C@@H](CSCc1ccccc1)C(=O)O)c1cc(N2CCN(c3nccc(C(F)(F)F)n3)CC2)nc(-c2cccs2)n1` [Compound 58, (R)-3-Benzylsulfanyl-2-({2-thiophen-2-yl-6-[4-(4-trifluoromethylpyrimidin-2-yl)-piperazin-1-yl]pyrimidine-4-carbonyl}amino)propionic acid], in that order: 10.6 µM and 4.5 µM.
For the compound `CN1CCN(c2nc(C(=O)N[C@@H](CSCc3ccccc3)C(=O)O)cc(N3CCN(c4nccc(C(F)(F)F)n4)CC3)n2)CC1` [Compound 44, (R)-3-Benzylsulfanyl-2-({2-(4-methyl-piperazin-1-yl)-6-[4-(4-trifluoromethyl-pyrimidin-2-yl)piperazin-1-yl]pyrimidine-4-carbonyl}amino)propionic acid], the 50% inhibitory concentration (IC50) in assay [1] is more than 100 µM; in assay [2], 85 µM.
Regarding `O=C(NC(Cc1ccc(Cl)cc1)C(=O)O)c1cc(N2CCN(c3nccc(C(F)(F)F)n3)CC2)nc(-c2cccs2)n1` (stereo not shown) [Compound 59, 3-(4-Chlorophenyl)-2-({2-thiophen-2-yl-6-[4-(4-trifluoromethylpyrimidin-2-yl)-piperazin-1-yl]pyrimidine-4-carbonyl}amino)propionic acid], the figures for the IC50 in assay [1] and in assay [2] were 17.1 µM and 1.8 µM, respectively.
As for `C=C(NC(=O)c1cc(N2CCN(c3nccc(C(F)(F)F)n3)CC2)nc(-c2ccoc2)n1)C(=O)O` [Compound 63, 2-({2-Furan-3-yl-6-[4-(4-trifluoromethylpyrimidin-2-yl)piperazin-1-yl]pyrimidine-4-carbonyl}amino)acrylic acid], the values for the IC50 in assay [1] and in assay [2] were more than 100 µM and 21.4 µM, respectively.
On to `N#Cc1ccc(-c2nc(C(=O)N[C@H](Cc3ccc(Cl)cc3)C(=O)O)cc(N3CCc4ccccc4C3)n2)cc1` [Compound 10, (R)-3-(4-Chlorophenyl)-2-{[2-(4-cyanophenyl)-6-(3,4-dihydro-1H-isoquinolin-2-yl)pyrimidine-4-carbonyl]amino}propionic acid], for which the IC50 in assay [1] is more than 100 µM; in assay [2], 4.3 µM.
Consider `O=C(N[C@@H](CSCc1ccccc1)C(=O)O)c1cc(N2CCN(c3ccccc3)CC2)nc(-c2ccc(Cl)c(Cl)c2)n1` [Compound 20, (R)-3-Benzylsulfanyl-2-{[2-(3,4-dichlorophenyl)-6-(4-phenyl-piperazin-1-yl)-pyrimidine-4-carbonyl]amino}propionic acid], for which the concentration for half-maximal inhibition (IC50) in assay [1] was more than 100 µM; in assay [2] it was 2.1 µM.
For the compound `O=C(N[C@@H](COCc1ccccc1)C(=O)O)c1cc(N2CCN(c3nccc(C(F)(F)F)n3)CC2)nc(-c2ccc(F)cc2)n1` [Compound 54, (S)-3-Benzyloxy-2-({2-(4-fluorophenyl)-6-[4-(4-trifluoromethylpyrimidin-2-yl)-piperazin-1-yl]pyrimidine-4-carbonyl}amino)propionic acid], the IC50 in assay [1] was determined as 2.7 µM; in assay [2] it was 1.3 µM.
